Assay results reported in patent publication US10865186B2, “Opioid agonists and uses thereof” (Nektar Therapeutics, priority 2013, dated 2020).
Like-named read-outs stand apart in the source and are kept apart here.

Tested on: Swiss Albino or CD-1 male mice
Test: Acetic acid writhing (AAW) analgesic assay
Type: in vivo, mouse
Conditions: for inhibition in vivo at 30 mg/kg: Mus musculus, 20 min, read-out: AAW % Efficacy
Description: Approaches for evaluating analgesic activity of a compound of the present invention in vivo include a “writhing test.” Briefly, the compound to be tested is administered [by, for example, injection (e.g., subcutaneous injection)] to the mouse. Thereafter, a 0.5% acetic acid solution is administered (i.p.) to a mouse and the numbers of writhing responses are counted for twenty minutes. Antinociception is quantified as reduction in the number of writhes respective to vehicle.
An analgesic assay was used to determine whether a given compound can reduce and/or prevent visceral pain in mice. The assay utilizes Swiss Albino or CD-1 male mice (5-10 mice per group), each mouse being approximately 0.015-0.030 kg on the study day. Mice were treated according to standard protocols.
The animal was given an intraperitoneal (IP) injection of an irritant (acetic acid) that induces “writhing” which may include: contractions of the abdomen, twisting and turning of the trunk, arching of the back and the extension of the hindlimbs. Mice are given a single IP injection (0.1 mL/10 g bodyweight) of a 0.5% acetic acid solution. After the injection the animals were returned to their observation enclosure and their behavior was observed. Contractions were counted between 0 and 20 minutes after the injection. The animals were used once. In certain instances, the test articles were administered at multiple doses to determine a dose response curve.
Table 4 provides the results for certain compounds of the present invention that were administered subcutaneously. Table 5 provides the results for certain compounds of the present invention that were administered orally.

## C[C@H]1[C@H]2C(=O)c3ccc(Nc4ccc(NCCOCCOCCOCCOCCOC(F)(F)F)cc4)cc3[C@]1(C)CCN2CC1CC1 [Compound 20, (2S,6R,11R)-3-(cyclopropylmethyl)-6,11-dimethyl-8-((4-((1,1,1-trifluoro-2,5,8,11,14-pentaoxahexadecan-16-yl)amino)phenyl)amino)-3,4,5,6-tetrahydro-2,6-methanobenzo[d]azocin-1(2H)-one]
oral
  inhibition in vivo at 30 mg/kg: 100%

## COCCOCCOCCOCCOCCNc1cccc(Nc2ccc3c(c2)[C@]2(C)CCN(CC4CC4)[C@H](C3=O)[C@@H]2C)c1 [Compound 11, (2S,6R,11R)-8-((3-(2,5,8,11,14-pentaoxahexadecan-16-ylamino)phenyl)amino)-3-(cyclopropylmethyl)-6,11-dimethyl-3,4,5,6-tetrahydro-2,6-methanobenzo[d]azocin-1(2H)-one]
sc, subcutaneous
  inhibition in vivo at 30 mg/kg: 100%

## COCCOCCOCCOCCOCCOc1cccc(Nc2ccc3c(c2)[C@]2(C)CCN(CC4CC4)[C@H](C3=O)[C@@H]2C)c1 [Compound 8, (2S,6R,11R)-8-((3-(2,5,8,11,14-pentaoxahexadecan-16-yloxy)phenyl)amino)-3-(cyclopropylmethyl)-6,11-dimethyl-3,4,5,6-tetrahydro-2,6-methanobenzo[d]azocin-1(2H)-one]
subcutaneous, 30 mg/kg
  AAW % Efficacy: 100.0%
